# Biological target: T1, Langerin ECD (Homo sapiens, UniProt Q9UJ71)
# T1 construct: The ECD of Langerin (residues 68–328) was overexpressed and purified as previously described; made in house
# Assay: SPR competition (inhibition) assay with trimeric Langerin ECD
# Format: binding
# Details: Biacore T200, CM3 chip with BSA-Manα1-3[Manα1-6]Man, Langerin ECD 20 μM, 25 mM Tris-HCl pH 8, 150 mM NaCl, 4 mM CaCl2, 0.05% P20, four parameter fit
# Experimental: The ECD of Langerin (residues 68–328) was overexpressed and purified as previously described ([Thépaut et al., 2009]). The SPR competition experiments were performed on a Biacore T200 using a CM3 series S sensor chip. Control flow cell 1 was functionalized with bovine serum albumin (BSA), whereas flow cell 2 and 3 were treated with 60 μg/mL BSA-Man α1-3[Manα1-6]Man (Dextra) in 10 mM NaOAc pH4 (final densities 2.062 and 2.183 RU, respectively). All flow cells were blocked with ethanolamine. […] Langerin ECD (20 μM) was injected at 5 μL/min, with or without inhibitor at increasing concentrations. The data were analyzed in Biacore BIAevaluation software using four parameter equation, and the IC50 was determined.
# T1 sequence (Q9UJ71 68-328): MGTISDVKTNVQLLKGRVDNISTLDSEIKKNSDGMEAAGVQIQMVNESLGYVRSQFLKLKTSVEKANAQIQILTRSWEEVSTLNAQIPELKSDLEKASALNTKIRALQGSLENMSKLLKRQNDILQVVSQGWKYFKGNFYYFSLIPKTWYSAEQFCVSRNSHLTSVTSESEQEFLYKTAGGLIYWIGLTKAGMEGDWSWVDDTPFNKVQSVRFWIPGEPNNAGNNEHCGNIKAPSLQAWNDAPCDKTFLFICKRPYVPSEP
row,Compound,IC50 [µM]
1,CC(=O)N[C@@H](CCCCn1cc(CO[C@H]2O[C@H](CO)[C@@H](O)[C@H](O)[C@@H]2O)nn1)C(=O)NCC(=O)N[C@@H](CCCCn1cc(CO[C@H]2O[C@H](CO)[C@@H](O)[C@H](O)[C@@H]2O)nn1)C(=O)NCC(=O)N[C@@H](CCCCN)C(N)=O [Ligand A2],2420 ± 30
2,CC(=O)N[C@@H](CCCCn1cc(CO[C@H]2O[C@H](CO)[C@@H](O)[C@H](O[C@H]3O[C@H](CO)[C@@H](O)[C@H](O)[C@@H]3O)[C@@H]2O)nn1)C(=O)NCC(=O)N[C@@H](CCCCn1cc(CO[C@H]2O[C@H](CO)[C@@H](O)[C@H](O[C@H]3O[C@H](CO)[C@@H](O)[C@H](O)[C@@H]3O)[C@@H]2O)nn1)C(=O)NCC(=O)N[C@@H](CCCCN)C(N)=O [Ligand C2],1420
3,CC(=O)N[C@@H](CCCCn1cc(CO[C@H]2O[C@H](CO)[C@@H](O)[C@H](O)[C@@H]2O[C@H]2O[C@H](CO)[C@@H](O)[C@H](O)[C@@H]2O)nn1)C(=O)NCC(=O)N[C@@H](CCCCn1cc(CO[C@H]2O[C@H](CO)[C@@H](O)[C@H](O)[C@@H]2O[C@H]2O[C@H](CO)[C@@H](O)[C@H](O)[C@@H]2O)nn1)C(=O)NCC(=O)N[C@@H](CCCCN)C(N)=O [Ligand B2],181 ± 4
4,CC(=O)N[C@@H](CCCCn1cc(CO[C@H]2O[C@H](CO)[C@@H](O)[C@H](O)[C@@H]2O[C@H]2O[C@H](CO)[C@@H](O)[C@H](O)[C@@H]2O)nn1)C(=O)NCC(=O)N[C@@H](CCCCN)C(N)=O [Ligand B1],4140

# Biological target: T2, Langerin S-ECD (Homo sapiens, UniProt Q9UJ71)
# T2 construct: The ECD of Langerin (residues 68–328) was overexpressed and purified as previously described; made in house
# Assay: SPR direct interaction assay on oriented Langerin S-ECD surface
# Format: binding
# Details: Langerin S-ECD captured via StreptagII on CM3 chip, flow 30 μL/min, same running buffer pH 8, 1:1 fit, apparent Kd, read-out: Kdapp
# Experimental: To determine the apparent Kd value, direct interaction experiments were executed on a T200 Biacore with a CM3 series S sensor chip. The Langerin ECD in this assay was functionalized with a […] on the N-terminus (Langerin S-ECD), for oriented capture on the sensor chip surface. The flow cells were functionalized with streptactin protein after EDC/NHS activation. Control flow cell 1 was functionalized with BSA, whereas another flow cell was functionalized with 100 μg/mL Langerin S-ECD via tag-specific capture and simultaneous amine coupling as previously described ([Porkolab et al., 2020]). An approximate density of about 2.609 RU was achieved on the chip surface. The compounds were injected in increasing concentrations with a flow rate of 30 μL/min in the previously mentioned running buffer. The data were analyzed in Biacore BIAevaluation software for direct interaction 1:1 calculation to determine the apparent Kd value.
# T2 sequence (Q9UJ71 68-328): as above
row,Compound,Kd [µM]
1,CC(=O)N[C@@H](CCCCn1cc(CO[C@H]2O[C@H](CO[C@H]3O[C@H](CO)[C@@H](O)[C@H](O)[C@@H]3O)[C@@H](O)[C@H](O[C@H]3O[C@H](CO)[C@@H](O)[C@H](O)[C@@H]3O)[C@@H]2O)nn1)C(=O)NCC(=O)N[C@@H](CCCCn1cc(CO[C@H]2O[C@H](CO[C@H]3O[C@H](CO)[C@@H](O)[C@H](O)[C@@H]3O)[C@@H](O)[C@H](O[C@H]3O[C@H](CO)[C@@H](O)[C@H](O)[C@@H]3O)[C@@H]2O)nn1)C(=O)NCC(=O)N[C@@H](CCCCN)C(N)=O [Ligand E2],278
2,CC(=O)N[C@@H](CCCCn1cc(CO[C@H]2O[C@H](CO[C@H]3O[C@H](CO)[C@@H](O)[C@H](O)[C@@H]3O)[C@@H](O)[C@H](O)[C@@H]2O)nn1)C(=O)NCC(=O)N[C@@H](CCCCn1cc(CO[C@H]2O[C@H](CO[C@H]3O[C@H](CO)[C@@H](O)[C@H](O)[C@@H]3O)[C@@H](O)[C@H](O)[C@@H]2O)nn1)C(=O)NCC(=O)N[C@@H](CCCCN)C(N)=O [Ligand D2],16

# — article PMC7371993, “Targeting of the C-Type Lectin Receptor Langerin Using Bifunctional Mannosylated Antigens” (Frontiers in Cell and Developmental Biology, 2020)
